The target in experiment [1] is CB2 receptor (Homo sapiens, UniProt P34972). The note with it: read-out: Ki for the CB2 receptor; Huffman et al., Biorg. Med. Chem. 1999; cited from earlier work.
For experiment [2], the target named is T1, human CB2 receptor (transfected human embryonic kidney 293 cells) (Homo sapiens, UniProt P34972).
T1 construct: expressed in transfected cells
In words: CB2 receptor binding assay, [3H]CP-55,940 displacement. The note with it: for Fold selectivity for CB2 over CB1: ratio of CB1 to CB2 affinity. Here is the method:
2. CB2 Assay. Human embryonic kidney 293 cells were maintained in Dulbecco's modified Eagle's medium (DMEM) with 10% fetal clone II (HyClone, Logan Utah) and 5% CO2 at 37° C. in a Forma incubator. Cell lines were created by transfection of CB2pcDNA3 into 293 cells by the Lipofectamine reagent (Life Technologies, Gaithersburg, Md.). The human CB2 cDNA was a gift. Stable transformants were selected in growth medium containing geneticin (1 mg/mL, reagent, Life Technologies, Gaithersburg, Md.). Colonies of about 500 cells were picked (about 2 weeks post transfection) and allowed to expand, then tested for expression of receptor mRNA by northern blot analysis. Cell lines containing moderate to high levels of receptor mRNA were tested for receptor binding properties. Transfected cell lines were maintained in DMEM with 10% fetal clone II plus 0.3-0.5 mg/mL geneticin and 5% CO2 at 37° C. in a Forma incubator.
The current assay is a modification of Compton et al. (Compton, D. R.; Rice, K. C.; De Costa, B. R.; Razdan, R. K.; Melvin, L. S.; Johnson, M. R.; Martin, B. R. J. Pharmacol Exp. Ther. 1993, 265, 218.) Cells were harvested in phosphate-buffered saline containing 1 mM EDTA and centrifuged at 500 g. The cell pellet was homogenized in 10 mL of solution A (50 mM Tris-HCl, 320 mM sucrose, 2 mM EDTA, 5 mM MgCl2, pH 7.4). The homogenate was centrifuged at 1,600×g (10 min), the supernatant saved, and the pellet washed three times in solution A with subsequent centrifugation. The combined supernatants were centrifuged at 100,000×g (60 min). The (P2 membrane) pellet was resuspended in 3 mL of buffer B (50 mM Tris-HCl, 1 mM EDTA, 3 mM MgCl2, pH 7.4) to yield a protein concentration of approximately 1 mg/mL. The tissue preparation was divided into equal aliquots, frozen on dry ice, and stored at −70° C. Binding was initiated by the addition of 40-50 μg membrane protein to silanized tubes containing [^3H]CP-55,940 (102.9 Ci/mmol) and a sufficient volume of buffer C (50 mM Tris-HCl, 1 mM EDTA, 3 mM MgCl2, and 5 mg/mL fatty acid free BSA, pH 7.4) to bring the total volume to 0.5 mL. The addition of 1 μM unlabelled CP-55,940 was used to assess nonspecific binding. Following incubation (30° C. for 1 hour), binding was terminated by the addition of 2 mL of ice cold buffer D (50 mM Tris-HCl, pH 7.4, plus 1 mg/mL BSA) and rapid vacuum filtration through Whatman GF/C filters (pretreated with polyethyleneimine (0.1%) for at least 2 hours). Tubes were rinsed with 2 mL of ice cold buffer D, which was also filtered, and the filters subsequently rinsed twice with 4 mL of ice cold buffer D. Before radioactivity was quantitated by liquid scintillation spectrometry, filters were shaken for 1 hr in 5 mL of scintillation fluid.
CP-55,940 and all cannabinoid analogs were prepared by suspension in assay buffer from a 1 mg/mL ethanolic stock without evaporation of the ethanol (final concentration of no more than 0.4%). Competition assays were conducted with 1 nM [^3H]-CP55,940 and 6 concentrations (0.1 nM to 10 μM displacing ligands). Displacement IC50 values were originally determined by unweighted least-squares linear regression of log concentration-percent displacement data and then converted to Ki values using the method of Cheng and Prusoff(Cheng, Y. C.; Prusoff, W. H. Biochem. Pharmacol. 1973, 22, 3099.)

Experiment [3] has as its target T2, CB1 receptor (Rattus norvegicus, UniProt P20272).
T2 construct: except whole brain (rather than cortex only) was used; from tissue; host or cells: whole brain P2 membranes
In words: CB1 receptor binding assay, [3H]CP-55,940 displacement, whole brain P2 membranes. Here is the method:
1. CB1 Assay. [^3H] […] Displacement curves were generated by incubating drugs with 1 nM of [^3H] CP-55,940. The assays were performed in triplicate, and the results represent the combined data from three individual experiments.
CP-55,940 and all cannabinoid analogs were prepared by suspension in assay buffer from a 1 mg/mL ethanolic stock without evaporation of the ethanol (final concentration of no more than 0.4%). […] Displacement IC50 values were originally determined by unweighted least-squares linear regression of log concentration-percent displacement data and then converted to Ki values using the method of Cheng and Prusoff(Cheng, Y. C.; Prusoff, W. H. Biochem. Pharmacol. 1973, 22, 3099.)

Experiment [4] deals with formalin model of inflammatory pain. Description: Formalin model of inflammatory pain. The note with it: male ICR mice. The class given is in vivo. Here is the method: One of the above CB2 selective agonists was chosen for testing in the formalin model of inflammatory pain in mice. Subjects consisted of male ICR mice (Harlan Labs) weighing between 20-25 g. The formalin test was carried out in an open Plexiglas cage, with a mirror placed under the floor to allow an unobstructed view of the paws. Mice were allowed to acclimate for 15 min in the test cage before formalin injection. Each animal was injected with 20 μl of 2.5% formalin in the intraplantar region of the right hindpaw. Mice were then observed 0-5 min (Phase 1) and 20-45 min (Phase 2) post-formalin, and the amount of time spent licking the injected paw was recorded. The drug was injected i.p. 30 min before formalin injection.

Data on nine compounds can be found in patent US20060183922A1, “CB2-selective cannabinoid derivatives” (priority 2005, published 2006).

Entries after “also recorded” stand apart in the source; their conditions may differ.

T2 sequence (P20272 whole entry): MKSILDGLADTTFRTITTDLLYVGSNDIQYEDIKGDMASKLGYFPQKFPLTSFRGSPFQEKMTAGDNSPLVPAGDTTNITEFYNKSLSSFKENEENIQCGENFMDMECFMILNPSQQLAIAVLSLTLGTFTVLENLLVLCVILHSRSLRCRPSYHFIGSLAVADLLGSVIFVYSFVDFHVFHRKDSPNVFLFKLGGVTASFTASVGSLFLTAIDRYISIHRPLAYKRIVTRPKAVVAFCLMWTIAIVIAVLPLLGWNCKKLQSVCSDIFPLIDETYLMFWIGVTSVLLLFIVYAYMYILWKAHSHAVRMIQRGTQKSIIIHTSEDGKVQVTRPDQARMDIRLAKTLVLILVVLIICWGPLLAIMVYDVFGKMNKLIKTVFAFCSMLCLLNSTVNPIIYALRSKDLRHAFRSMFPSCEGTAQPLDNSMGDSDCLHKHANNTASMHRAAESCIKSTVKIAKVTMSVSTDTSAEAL
T1 sequence (P34972 whole entry): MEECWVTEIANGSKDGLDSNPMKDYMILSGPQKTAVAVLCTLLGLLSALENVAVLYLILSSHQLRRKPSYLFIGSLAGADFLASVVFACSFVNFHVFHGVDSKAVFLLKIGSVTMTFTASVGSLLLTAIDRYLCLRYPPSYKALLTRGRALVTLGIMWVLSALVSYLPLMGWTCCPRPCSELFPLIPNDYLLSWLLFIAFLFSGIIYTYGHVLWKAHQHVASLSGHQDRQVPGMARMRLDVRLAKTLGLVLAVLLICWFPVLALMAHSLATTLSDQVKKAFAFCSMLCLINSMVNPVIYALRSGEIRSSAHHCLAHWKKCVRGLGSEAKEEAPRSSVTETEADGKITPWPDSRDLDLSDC
Sequence of CB2 receptor (P34972 whole entry): as above

As for `CCCCCCC(C)(C)c1ccc2c(c1)OC(C)(C)C1CC=C(C)CC21` (stereo not drawn) [1-deoxy-Δ^8-THC-DMH], the Ki in experiment [1] was 0.003 µM.
`CCC[C@H](C)Cc1ccc2c(c1)OC(C)(C)[C@@H]1CC=C(C)C[C@@H]21` [Compound 255, 1-Deoxy-3-(2′S-methylpentyl)-Δ^8-tetrahydrocannabinol]: in experiment [2], the affinity corresponds to a Ki of 0.0243 ± 0.0086 µM and the “Fold selectivity for CB2 over CB1” value is reported as 174 fold. In experiment [3], this compound showed a Ki of 4.31 ± 0.649 µM.
With `CCCCC(C)(C)c1cc(OC)c2c(c1)OC(C)(C)[C@@H]1CC[C@@H](O)C[C@@H]21` [Compound 299, 1-Deoxy-9β-hydroxy-1-methoxy-3-(1′,1′dimethylpentyl)-11-nor-hexahydrocannabinol], in experiment [2], the affinity, expressed as Ki, was 0.0298 ± 0.00177 µM and the “Fold selectivity for CB2 over CB1” value amounted to 14 fold. In experiment [3], this compound showed an inhibition constant Ki of 0.415 ± 0.0498 µM.
For `CCCC(C)(C)c1ccc2c(c1)OC(C)(C)[C@@H]1CC[C@@H](O)C[C@@H]21` [Compound 310, 1-Deoxy-9β-hydroxy-3-(1′,1′dimethylbutyl)-11-nor-hexahydrocannabinol], in experiment [2], affinity was put at a Ki of 0.0361 ± 0.0028 µM and the “Fold selectivity for CB2 over CB1” value is 29 fold. The same compound returned an inhibition constant Ki in experiment [3] of 1.06 µM.
Turning to `CCCCCC(C)(C)c1cc(OC)c2c(c1)OC(C)(C)[C@@H]1CC[C@H](O)C[C@@H]21` [Compound 349, 9α-Hydroxy-1-methoxy-3-(1′,1′dimethylhexyl)-11-nor-hexahydrocannabinol], the inhibition constant (Ki) in experiment [2] turned out to be 0.038 ± 0.0043 µM; in experiment [3], 0.3757 ± 0.0007 µM. Also, in experiment [2], the “Fold selectivity for CB2 over CB1” value is given as 10 fold.
For the compound `CCCCCC(C)(C)c1cc(OC)c2c(c1)OC(C)(C)[C@@H]1CC[C@@H](O)C[C@@H]21` [Compound 350, 9β-Hydroxy-1-methoxy-3-(1′,1′dimethylhexyl)-11-nor-hexahydrocannabinol], in experiment [2], the inhibition constant Ki is 0.0118 ± 0.00103 µM and the “Fold selectivity for CB2 over CB1” value came out at 33 fold. In addition, in experiment [3], the Ki is 0.395 ± 0.0198 µM. In experiment [4] (20 mg/kg i.p. 30 min before formalin, listed as JWH-350), the “pain response (time spent licking injected paw)” value was “completely inhibited pain response; also recorded: completely eliminating the pain response”. For the same compound, the “nociception, dose dependence” value in experiment [4] (i.p. 30 min before formalin) is “inhibits nociception in a dose-dependent manner”.
Regarding `CC[C@H](C)Cc1ccc2c(c1)OC(C)(C)[C@@H]1CC=C(C)C[C@@H]21` [Compound 352, 1-Deoxy-3-(2′S-methylbutyl)-Δ^8-tetrahydrocannabinol], in experiment [2], the affinity, expressed as Ki, was 0.0465 ± 0.00216 µM and the “Fold selectivity for CB2 over CB1” value is given as 213 fold. Also, the inhibition constant (Ki) in experiment [3] is above 10 µM.
Regarding `CC[C@@H](C)Cc1ccc2c(c1)OC(C)(C)[C@@H]1CC=C(C)C[C@@H]21` [Compound 353, 1-Deoxy-3-(2′R-methylbutyl)-Δ^8-tetrahydrocannabinol], the Ki amounted to 0.0313 ± 0.00078 µM in experiment [2] and 1.493 ± 0.01 µM in experiment [3]. For the same compound, the “Fold selectivity for CB2 over CB1” value in experiment [2] came to 48 fold.
Consider `CC[C@@H](C)Cc1cc(OC)c2c(c1)OC(C)(C)[C@@H]1CC=C(C)C[C@@H]21` [Compound 359, 1-Methoxy-3-(2′R-methylbutyl)-Δ^8-tetrahydrocannabinol], for which, in experiment [2], the inhibition constant Ki was 0.0133 ± 0.00015 µM and the “Fold selectivity for CB2 over CB1” value came out at 219 fold. Besides, the affinity in experiment [3], expressed as Ki, was 2.92 ± 0.45 µM.

Broadly, the Ki is a measure of affinity in units of concentration, obtained from inhibition or displacement.
